# Results taken from ChEMBL document CHEMBL5356971, “Optimization of the Antibacterial Spectrum and the Developability Profile of the Novel-Class Natural Product Corramycin” (J Med Chem, 2023).
# What was measured:
# [1] = Metabolic stability in mouse kidney assessed as parent compound remaining measured after 4 hrs by UPLC-MS analysis; type: ADME, tissue-based; conditions: read-out: Stability
# [2] = Metabolic stability in mouse lung assessed as parent compound remaining measured after 4 hrs by UPLC-MS analysis; type: ADME, tissue-based; conditions: mouse lung, read-out: Stability
# [3] = Metabolic stability in mouse lung assessed as parent compound remaining measured after 1 hrs by UPLC-MS analysis; type: ADME, tissue-based; conditions: mouse lung, read-out: Stability
# [4] = Metabolic stability in mouse kidney assessed as parent compound remaining measured after 1 hrs by UPLC-MS analysis; type: ADME, tissue-based; conditions: read-out: Stability
# [5] = tested on: Escherichia coli; assay: Antibacterial activity against wild type Escherichia coli ATCC 35218 assessed as reduction in microbial growth incubated for 20 to 22 hrs by CLSI based analysis; type: functional; conditions: time 20-22 hrs
# [6] = tested on: Escherichia coli; assay: Antibacterial activity against Escherichia coli ATCC 35218 harboring SbmA assessed as reduction in microbial growth incubated for 20 to 22 hrs by CLSI based analysis; type: functional; conditions: time 20-22 hrs
# [7] = tested on: Klebsiella pneumoniae; assay: Antibacterial activity against wild type Klebsiella pneumoniae ATCC 13883 assessed as reduction in microbial growth incubated for 20 to 22 hrs by CLSI based analysis; type: functional; conditions: time 20-22 hrs
# [8] = tested on: Klebsiella pneumoniae; assay: Antibacterial activity against Klebsiella pneumoniae ATCC 13883 harboring SbmA assessed as reduction in microbial growth incubated for 20 to 22 hrs by CLSI based analysis; type: functional; conditions: time 20-22 hrs
# [9] = tested on: Acinetobacter baumannii; assay: Antibacterial activity against wild type Acinetobacter baumannii ATCC 19606 assessed as reduction in microbial growth incubated for 20 to 22 hrs by CLSI based analysis; type: functional; conditions: time 20-22 hrs
# [10] = tested on: Escherichia coli; assay: Antibacterial activity against Escherichia coli ATCC 35218 assessed as reduction in microbial growth incubated for 20 to 22 hrs by CLSI based analysis; type: functional; conditions: time 20-22 hrs
# [11] = tested on: Klebsiella pneumoniae; assay: Antibacterial activity against Klebsiella pneumoniae ATCC 13883 assessed as reduction in microbial growth incubated for 20 to 22 hrs by CLSI based analysis; type: functional; conditions: time 20-22 hrs
# [12] = tested on: Acinetobacter baumannii; assay: Antibacterial activity against Acinetobacter baumannii ATCC 19606 assessed as reduction in microbial growth incubated for 20 to 22 hrs by CLSI based analysis; type: functional; conditions: time 20-22 hrs
MIC [10] [µg/mL],MIC [11] [µg/mL],MIC [12] [µg/mL],Compound,remaining at 4 h [1] [%],remaining at 4 h [2] [%],remaining at 1 h [3] [%],remaining at 1 h [4] [%],MIC [5] [µg/mL],MIC [6] [µg/mL],MIC [7] [µg/mL],MIC [8] [µg/mL],MIC [9] [µg/mL]
–,–,–,CO[C@@H](CNC(=O)[C@H](NC(=O)[C@H](O)[C@H](C)O)[C@H](O)c1cncn1C)[C@H](O)[C@H](O)C(=O)N(C)[C@@H](Cc1ccccc1)C(=O)NCC(=O)N[C@H](C(=O)N[C@@H](CO)C(=O)N[C@H](C(=O)N[C@H](C(=O)N[C@@H](CO)C(=O)N[C@@H](CN)C(=O)NCc1cc(=O)c(O)cn1O)C(C)(C)C)C(C)(C)O)C(C)(C)O,83,75,87,93,0.02,4,0.25,> 32,0.25
> 32,> 32,> 32,CO[C@@H](CNC(=O)[C@H](NC(=O)[C@H](O)[C@H](C)O)[C@H](O)c1cncn1C)[C@H](O)[C@H](O)C(=O)N(C)[C@@H](Cc1ccccc1)C(=O)NCC(=O)N[C@@H](C)C(=O)N[C@@H](CO)C(=O)N[C@H](C(=O)N[C@@H](CC(C)C)C(=O)N[C@@H](CO)C(=O)O)C(C)(C)O,–,–,–,–,–,–,–,–,–
8,64,> 32,CO[C@@H](CNC(=O)[C@H](NC(=O)[C@H](O)[C@H](C)O)[C@H](O)c1cncn1C)[C@H](O)[C@H](O)C(=O)N(C)[C@@H](Cc1ccccc1)C(=O)NCC(=O)N[C@H](C(=O)N[C@@H](CO)C(=O)N[C@H](C(=O)N[C@@H](C)C(=O)N[C@@H](CO)C(=O)O)C(C)(C)O)C(C)(C)O,–,–,–,–,–,–,–,–,–
–,–,–,CO[C@@H](CNC(=O)[C@H](NC(=O)[C@H](O)[C@H](C)O)[C@H](O)c1cncn1C)[C@H](O)[C@H](O)C(=O)N(C)[C@@H](Cc1ccccc1)C(=O)N[C@@H](C)C(=O)N[C@H](C(=O)N[C@@H](CO)C(=O)N[C@H](C(=O)N[C@H](C(=O)N[C@@H](CO)C(=O)NCc1cc(=O)c(O)cn1O)C(C)(C)C)C(C)(C)O)C(C)(C)O,75,85,91,85,0.06,1,1,> 32,1
> 64,–,–,CO[C@@H](CNC(=O)[C@H](NC(=O)[C@H](O)[C@H](C)O)[C@H](O)c1cncn1C)[C@H](O)[C@H](O)C(=O)N(C)[C@@H](Cc1ccccc1)C(=O)NCC(=O)N[C@H](C(=O)N[C@@H](CO)C(=O)N[C@H](C(=O)O)C(C)(C)O)C(C)(C)O,–,–,–,–,–,–,–,–,–
8,> 32,> 32,CO[C@@H](CNC(=O)[C@H](NC(=O)[C@H](O)[C@H](C)O)[C@H](O)c1cncn1C)[C@H](O)[C@H](O)C(=O)N(C)[C@@H](Cc1ccccc1)C(=O)N[C@@H](C)C(=O)N[C@H](C(=O)N[C@@H](CO)C(=O)N[C@H](C(=O)N[C@@H](CC(C)C)C(=O)N[C@@H](CO)C(=O)O)C(C)(C)O)C(C)(C)O,–,–,–,–,–,–,–,–,–
4,> 32,> 32,CO[C@@H](CNC(=O)[C@H](NC(=O)[C@H](O)[C@H](C)O)[C@H](O)c1cncn1C)[C@H](O)[C@H](O)C(=O)N(C)[C@@H](Cc1ccccc1)C(=O)NCC(=O)N[C@H](C(=O)N[C@@H](C)C(=O)N[C@H](C(=O)N[C@@H](CC(C)C)C(=O)N[C@@H](CO)C(=O)O)C(C)(C)O)C(C)(C)O,–,–,–,–,–,–,–,–,–
–,–,–,CO[C@@H](CNC(=O)[C@H](NC(=O)[C@H](O)[C@H](C)O)[C@H](O)c1cncn1C)[C@H](O)[C@H](O)C(=O)N(C)[C@@H](Cc1ccccc1)C(=O)NCC(=O)N[C@H](C(=O)N[C@@H](CO)C(=O)N[C@H](C(=O)N[C@H](C(=O)N[C@@H](CO)C(=O)N[C@H](CCC(=O)NCc1cc(=O)c(O)cn1O)C(=O)O)C(C)(C)C)C(C)(C)O)C(C)(C)O,67,77,89,100,< 0.01,1,0.03,32,0.5
4,16,> 32,CO[C@@H](CNC(=O)[C@H](NC(=O)[C@H](O)[C@H](C)O)[C@H](O)c1cncn1C)[C@H](O)[C@H](O)C(=O)N(C)[C@@H](Cc1ccccc1)C(=O)NCC(=O)N[C@H](C(=O)N[C@@H](CO)C(=O)N[C@H](C(=O)N[C@@H](CC(C)C)C(=O)N[C@@H](C)C(=O)O)C(C)(C)O)C(C)(C)O,–,–,–,–,–,–,–,–,–
–,–,–,CO[C@@H](CNC(=O)[C@H](NC(=O)[C@H](O)[C@H](C)O)[C@H](O)c1cncn1C)[C@H](O)[C@H](O)C(=O)N(C)[C@@H](Cc1ccccc1)C(=O)NCC(=O)N[C@H](C(=O)N[C@@H](CO)C(=O)N[C@H](C(=O)N[C@H](C(=O)N[C@@H](CO)C(=O)NCc1cc(=O)c(O)cn1O)C(C)(C)C)C(C)(C)O)C(C)(C)O,84,73,84,99,< 0.01,0.5,0.03,> 32,0.5
–,–,–,CC[C@H](C)[C@H](NC(=O)[C@@H](NC(=O)[C@H](CO)NC(=O)[C@@H](NC(=O)CNC(=O)[C@H](Cc1ccccc1)N(C)C(=O)[C@@H](O)[C@@H](O)[C@H](CNC(=O)[C@H](NC(=O)[C@H](O)[C@H](C)O)[C@H](O)c1cncn1C)OC)C(C)(C)O)C(C)(C)O)C(=O)N[C@@H](CO)C(=O)N[C@@H](CCC(=O)NCc1cc(=O)c(O)cn1O)C(=O)O,42,33,73,84,0.03,0.25,0.12,32,0.5
–,–,–,CO[C@@H](CNC(=O)[C@H](NC(=O)[C@H](O)[C@H](C)O)[C@H](O)c1cncn1C)[C@H](O)[C@H](O)C(=O)N(C)[C@@H](Cc1ccc(F)cc1)C(=O)NCC(=O)N[C@H](C(=O)N[C@@H](CO)C(=O)N[C@H](C(=O)N[C@H](C(=O)N[C@@H](CCC(=O)NCc1cc(=O)c(O)cn1O)C(=O)O)C(C)(C)C)C(C)(C)O)C(C)(C)O,101,86,101,92,0.01,0.25,0.12,> 32,0.25
> 64,–,–,CO[C@@H](CNC(=O)[C@H](NC(=O)[C@H](O)[C@H](C)O)[C@H](O)c1cncn1C)[C@H](O)[C@H](O)C(=O)N(C)[C@@H](Cc1ccccc1)C(=O)O,–,–,–,–,–,–,–,–,–
–,–,–,CO[C@@H](CNC(=O)[C@H](NC(=O)[C@H](O)[C@H](C)O)[C@H](O)c1cncn1C)[C@H](O)[C@H](O)C(=O)N(C)[C@@H](Cc1ccc(F)cc1)C(=O)NCC(=O)N[C@H](C(=O)N[C@@H](CO)C(=O)N[C@H](C(=O)N[C@H](C(=O)N[C@@H](CO)C(=O)NCc1cccc(O)c1O)C(C)(C)C)C(C)(C)O)C(C)(C)O,0,0,0,11,0.06,–,0.5,–,0.5
–,–,–,CO[C@@H](CNC(=O)[C@H](NC(=O)[C@H](O)[C@H](C)O)[C@H](O)c1cncn1C)[C@H](O)[C@H](O)C(=O)N(C)[C@@H](Cc1ccc(F)cc1)C(=O)NCC(=O)N[C@H](C(=O)N[C@@H](CO)C(=O)N[C@H](C(=O)N[C@H](C(=O)N[C@@H](CO)C(=O)NCc1ccc(O)c(O)c1)C(C)(C)C)C(C)(C)O)C(C)(C)O,0,0,0,6,0.03,–,0.25,–,0.5
–,–,–,CO[C@@H](CNC(=O)[C@H](NC(=O)[C@H](O)[C@H](C)O)[C@H](O)c1cncn1C)[C@H](O)[C@H](O)C(=O)N(C)[C@@H](Cc1ccc(F)cc1)C(=O)NCC(=O)N[C@H](C(=O)N[C@@H](CO)C(=O)N[C@H](C(=O)N[C@H](C(=O)N[C@@H](CCC(=O)NCc1cc(=O)c(O)cn1O)C(=O)NCCN)C(C)(C)C)C(C)(C)O)C(C)(C)O,41,75,88,61,0.01,4,0.12,> 32,1
32,–,–,CO[C@@H](CNC(=O)[C@H](NC(=O)[C@H](O)[C@H](C)O)[C@H](O)c1cncn1C)[C@H](O)[C@H](O)C(=O)N(C)[C@@H](Cc1ccccc1)C(=O)NCC(=O)N[C@H](C(=O)N[C@@H](CO)C(=O)N[C@H](C(=O)N[C@@H](CC(C)C)C(=O)O)C(C)(C)O)C(C)(C)O,–,–,–,–,–,–,–,–,–
–,–,–,CO[C@@H](CNC(=O)[C@H](NC(=O)[C@H](O)[C@H](C)O)[C@H](O)c1cncn1C)[C@H](O)[C@H](O)C(=O)N(C)[C@@H](Cc1ccccc1)C(=O)NCC(=O)N[C@H](C(=O)N[C@@H](CO)C(=O)N[C@H](C(=O)N[C@@H](CC(C)C)C(=O)N[C@@H](CO)C(=O)N[C@@H](CCC(=O)NCc1cc(=O)c(O)cn1O)C(=O)O)C(C)(C)O)C(C)(C)O,0,0,1,22,0.03,0.12,0.25,8,0.5
> 64,–,–,CO[C@@H](CNC(=O)[C@H](NC(=O)[C@H](O)[C@H](C)O)[C@H](O)c1cncn1C)[C@H](O)[C@H](O)C(=O)N(C)[C@@H](Cc1ccccc1)C(=O)NCC(=O)N[C@H](C(=O)N[C@@H](CO)C(=O)O)C(C)(C)O,–,–,–,–,–,–,–,–,–
